In patent US20020040062A1, “Protein kinase C activators and their use in decreasing expression of cell antigens” (The Trustees of Columbia University, priority 1993, published 2002):
Like-named read-outs stand apart in the source and are kept apart here.

System: T47D cells
Assay: Dose-range and time-course of antigenic enhancement in T47D cells and effect of H-7
Assay type: cell-based, human
Method: T47D cells treated with the various compounds were analyzed by flow cytometry using appropriate monoclonal antibody concentrations as described previously. Briefly, 1×10^5 cells were incubated with the test antibody for 30 min at 4° C., washed 3× with PBS and incubated with a goat a mouse F (ab)2 FITC conjugated test antibody at a 1:40 dilution for 30 min at 4° C. Cells were then washed 3× with PBS and analyzed on a FACStar (Beckon Dickinson, Mountain View, Calif.) or a Coulter Epics IV FACS (Coulter, Hialeah, Fla.). Results are expressed as mean fluorescence intensity (MFI) units which were determined as described previously. MFI=(mean channel fluorescence in fluorescence positive antibody-binding cells×% of fluorescence positive antibody-binding cells)−(mean channel fluorescence in unstained cells×% of fluorescence positive cells in the unstained population). All studies were performed a minimum of three or four times with duplicate samples in each experiment.

[1] = T47D cells, preliminary studies, data not shown

SMILES: CCCCCCCCCCN(C)c1cc(CO)cc(NC(C)=O)c1 [ADMB, 3-(N-acetylamino)-5-(N-decyl-N-methylamino)-benzyl alcohol]
- most effective dose inducing upregulation of BCA 225, HLA Class II antigens, ICAM-1 and c-erbB-2 [1]: 0.1 µg/mL

SMILES: CC1CNCCN1S(=O)(=O)c1cccc2cnccc12.Cl.Cl (centres unmarked) [H-7, 1-(5-isoquinolinesulfonyl)-2-methylpiperazine dihydrochloride]
- effect of H-7 on enhancement of BCA 225, HLA Class II antigens and ICAM-1 expression by IFN-β or IFN-γ (T47D cells, 1.0 μg/ml H-7): did not inhibit
- effect of H-7 on increased antigenic expression induced by TPA, MEZ or ADMB (T47D cells, simultaneous exposure to 0.1 μg/ml H-7): inhibited

SMILES: C=C(C)[C@@]12O[C@@]3(c4ccccc4)O[C@@H]1[C@@H]1[C@@H]4O[C@]4(CO)[C@@H](O)[C@]4(O)C(=O)C(C)=C[C@H]4[C@@]1(O3)[C@H](C)[C@H]2OC(=O)/C=C/C=C/c1ccccc1 [MEZ, mezerein]
- most effective dose inducing upregulation of BCA 225, HLA Class II antigens, ICAM-1 and c-erbB-2 [1]: 0.1 µg/mL

SMILES: CCCCCCCCCCCCCC(=O)O[C@@H]1[C@@H](C)[C@@]2(O)[C@@H](C=C(CO)C[C@]3(O)C(=O)C(C)=C[C@@H]23)[C@H]2C(C)(C)[C@]12OC(C)=O [TPA, 12-0-tetradecanoyl-phorbol-13-acetate]
- most effective dose inducing upregulation of BCA 225, HLA Class II antigens, ICAM-1 and c-erbB-2: 0.1 µg/mL
